# Reference: PubChem BioAssay (NCI)
#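 Each compound was tested at five concentrations against cells in 96-well plates for 48 hours. At the GI50, growth is halved. The concentration for full growth arrest is given as TGI.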
# Key:
# Assay in all cases: inhibition of tumour cell growth, NCI panel, 48 h
# TK-10 renal = system: TK-10 renal
# LOX IMVI melanoma = system: LOX IMVI melanoma
# SF-268 CNS = system: SF-268 CNS
# RPMI-8226 leukemia = system: RPMI-8226 leukemia
# UO-31 renal = system: UO-31 renal
# HCC-2998 colon = system: HCC-2998 colon
# OVCAR-3 ovarian = system: OVCAR-3 ovarian
# CAKI-1 renal = system: CAKI-1 renal
# HCT-116 colon = system: HCT-116 colon
Compound,TGI (TK-10 renal),TGI (LOX IMVI melanoma),TGI (SF-268 CNS),TGI (RPMI-8226 leukemia),TGI (UO-31 renal),TGI (HCC-2998 colon),TGI (OVCAR-3 ovarian),TGI (CAKI-1 renal),TGI (HCT-116 colon),GI50 (LOX IMVI melanoma),GI50 (TK-10 renal),GI50 (SF-268 CNS),GI50 (RPMI-8226 leukemia),GI50 (UO-31 renal),GI50 (HCC-2998 colon),GI50 (OVCAR-3 ovarian),GI50 (CAKI-1 renal),GI50 (HCT-116 colon)
O=C1c2ccccc2C(=O)c2c(O)c(NCCNCCO)cc(O)c21,17.7 µM,15.5 µM,15.5 µM,21.4 µM,11.7 µM,13.7 µM,15.1 µM,14.2 µM,11.9 µM,,,,,,,,,
Cc1cc(C(O)CNC(C)CCn2cnc3c2c(=O)n(C)c(=O)n3C)ccc1O (stereo not drawn),> 100 µM,> 100 µM,> 100 µM,> 100 µM,> 100 µM,,> 100 µM,> 100 µM,> 100 µM,,,,,,,,,
Cc1[nH]c2ccccc2c1C1=CC(=O)N(c2ccccc2)C1=O,60.7 µM,18.3 µM,> 100 µM,> 100 µM,> 100 µM,7.38 µM,> 100 µM,> 100 µM,22.7 µM,,,,,,,,,
CN(C)Cc1[nH]c2ccccc2c1C(=O)c1ccccc1,> 100 µM,,> 100 µM,> 100 µM,> 100 µM,> 100 µM,> 100 µM,> 100 µM,> 100 µM,,,,,,,,,
COc1cc2c(cc1OCCCCN1CCN(CCCCOc3cc4c(cc3OC)C(=O)N3CCC[C@H]3C=N4)CC1)N=C[C@@H]1CCCN1C2=O,0.263 µM,> 100 µM,16.5 µM,< 0.0241 µM,> 100 µM,,0.0636 µM,0.182 µM,22.5 µM,0.0267 µM,,,,,,,,
COc1ccc(C2C(Cl)C(=O)N2NC(=O)c2ccccc2O)cc1OC (stereo not drawn),> 100 µM,> 100 µM,> 100 µM,,> 100 µM,,> 100 µM,,> 100 µM,,,,,,,,,
CC(=O)C1=NN(c2ccccc2)C2(S1)SC(c1ccccc1)(c1ccccc1)c1ccccc12 (stereo not drawn),> 100 µM,> 100 µM,> 100 µM,> 100 µM,> 100 µM,> 100 µM,> 100 µM,,> 100 µM,,,,,,,,,
O=C(O)CN=c1c2ccccc2n(O)c2ccccc12,> 100 µM,> 100 µM,> 100 µM,> 100 µM,> 100 µM,> 100 µM,> 100 µM,> 100 µM,> 100 µM,,,,,,,,,
Cc1ccc(S(=O)(=O)Nc2cc(Sc3ccccc3)c(O)c3ccccc23)cc1,31.7 µM,7.96 µM,8.07 µM,22.8 µM,10.9 µM,35.9 µM,8.24 µM,9.19 µM,11.5 µM,2.34 µM,17.5 µM,2.57 µM,3.4 µM,2.88 µM,18.4 µM,2.85 µM,3.16 µM,3.13 µM
CC(=O)O/N=C/c1cc2c(cc1Br)OCO2,> 349 µM,> 349 µM,> 349 µM,> 349 µM,,> 349 µM,> 349 µM,> 349 µM,,,,,,,,,,
Cc1ccc(F)c2c(=O)cc(-c3ccccc3)[nH]c12,> 100 µM,> 100 µM,> 100 µM,> 100 µM,> 100 µM,,,> 100 µM,> 100 µM,,,,,,,,,
CC#Cc1c(C#CC)c(OC)c2c(c1OC)C(=O)c1ccccc1C2=O,> 100 µM,> 100 µM,78.6 µM,> 100 µM,> 100 µM,> 100 µM,> 100 µM,> 100 µM,72.6 µM,,,,,,,,,
CC1(C)N=C(Oc2ccccc2)n2nccc2N1,> 100 µM,> 100 µM,> 100 µM,> 100 µM,> 100 µM,> 100 µM,> 100 µM,> 100 µM,> 100 µM,,,,,,,,,
Cc1cc(C)nc(NS(=O)(=O)c2ccc(NC(=O)c3cccc4c(N)c5ccccc5nc34)cc2)n1,> 100 µM,> 100 µM,> 100 µM,> 100 µM,> 100 µM,> 100 µM,> 100 µM,> 100 µM,> 100 µM,,,,,,,,,
CCCOP(=S)(N1CC1)N1CC1,> 100 µM,> 100 µM,> 100 µM,> 100 µM,> 100 µM,> 100 µM,> 100 µM,> 100 µM,> 100 µM,,,,,,,,,
Cc1cc(Cl)ccc1NC(=O)C(=O)Cc1occc(=O)c1O,> 100 µM,> 100 µM,> 100 µM,> 100 µM,> 100 µM,> 100 µM,,> 100 µM,> 100 µM,,,,,,,,,
CSc1nc(-c2ccc(Cl)cc2)c(C#N)c(=O)[nH]1,> 100 µM,,> 100 µM,> 100 µM,> 100 µM,> 100 µM,> 100 µM,> 100 µM,> 100 µM,,,,,,,,,
Cc1nc2nn(C)cc2c(=O)n1/N=C/c1ccccc1,> 100 µM,> 100 µM,> 100 µM,> 100 µM,> 100 µM,> 100 µM,> 100 µM,,> 100 µM,,,,,,,,,
CN(CCO)/N=N/c1nc[nH]c1C(N)=O,> 100 µM,> 100 µM,> 100 µM,> 100 µM,,> 100 µM,> 100 µM,,> 100 µM,,,,,,,,,
Cc1ccccc1NC(=O)CSc1nnc(Cc2ccccc2)o1,> 100 µM,> 100 µM,> 100 µM,> 100 µM,> 100 µM,> 100 µM,> 100 µM,,> 100 µM,,,,,,,,,
